Data: patent US10689344B2, “Biphenylamide derivative Hsp90 inhibitors” (University of Kansas, priority 2013, dated 2020)
Blank lines part the entries; values can stand above or below the molecule they belong to.

Columns and labels:
[1] = test system: MCF-7 (estrogen receptor positive breast cancer cells); assay: Anti-proliferation assay (MTS/PMS, 72 h), MCF-7; type: cell-based; conditions: Homo sapiens
Method: (§1) Cells were maintained in a 1:1 mixture of Advanced DMEM/F12 (Gibco) supplemented with non-essential amino acids, L-glutamine (2 mM), streptomycin (500 μg/mL), penicillin (100 units/mL), and 10% FBS. Cells were grown to confluence in a humidified atmosphere (37° C., 5% CO2), seeded (2000/well, 100 μL) in 96-well plates, and allowed to attach overnight. Compound at varying concentrations in DMSO (1% DMSO final concentration) was added, and cells were returned to the incubator for 72 h. At 72 h, the number of viable cells was determined using an MTS/PMS cell proliferation kit (Promega) per the manufacturer's instructions. Cells incubated in 1% DMSO were used at 100% proliferation, and values were adjusted accordingly. IC50 values were calculated from separate experiments performed in triplicate using GraphPad Prism.
(§2) Anti-proliferative studies with the compounds described herein were performed against the SKBr3 (estrogen receptor negative, HER2 over-expressing breast cancer cells) and MCF-7 (estrogen receptor positive breast cancer cells) breast cancer cell lines. […] In some embodiments, in contrast to the novobiocin derivatives, which usually manifest better anti-proliferative activities against the SKBr3 cell line, the biphenyl derivatives described herein were more efficacious against the MCF-7 cell line. In general, all substitutions on the phenyl ring were determined to be beneficial, consistent with the existence of a hydrophobic pocket in this region of the Hsp90 C-terminal binding site.

[2] = test system: SKBr3 (estrogen receptor negative, HER2 over-expressing breast cancer cells); assay: Anti-proliferation assay (MTS/PMS, 72 h), SKBr3; type: cell-based; conditions: Homo sapiens
Method: as §1, §2

[3] = MCF7, Table 10, longer alkyl chain substituted biphenyl core
[4] = SK-BR-3, Table 10, longer alkyl chain substituted biphenyl core
[5] = MCF7, Table 11, heteroatom linked biphenyl core
[6] = SK-BR-3, Table 11, heteroatom linked biphenyl core
[7] = MCF7, Table 2, para-meta biphenyl core with substituted benzylamide
[8] = SK-BR-3, Table 2, para-meta biphenyl core with substituted benzylamide
[9] = MCF7, Table 1, ortho, meta and para biphenyl cores
[10] = SK-BR-3, Table 1, ortho, meta and para biphenyl cores
[11] = MCF7, Table 4, para-para heteroatom substituted biphenyl core
[12] = SK-BR-3, Table 4, para-para heteroatom substituted biphenyl core
[13] = MCF7, Table 3, substituted para-para biphenyl core
[14] = SK-BR-3, Table 3, substituted para-para biphenyl core

Compound: CCCOc1ccc(C(=O)Nc2ccc(-c3ccc(OC4CCN(C)CC4)cc3)cc2)cc1-c1cccc(OC)c1
IC50 [1, 3]: 1.66 ± 0.12 µM | IC50 [2, 4]: 1.03 ± 0.04 µM

Compound: COc1cccc(-c2cc(C(=O)Nc3ccc(-c4ccc(OC5CCN(C)CC5)c(CCC(C)C)c4)cc3)ccc2OC)c1
IC50 [1, 3]: 1.43 ± 0.22 µM | IC50 [2, 4]: 1.18 ± 0.04 µM

Compound: CN1CCC(Oc2ccc(Nc3ccc(NC(=O)c4ccc(Cl)cc4)cc3)cc2)CC1
IC50 [1, 5]: 7.1 µM | IC50 [2, 6]: 6.44 ± 2.61 µM

Compound: CN1CCC(Oc2ccc(Nc3ccc(NC(=O)c4ccc(C(C)(C)C)cc4)cc3)cc2)CC1
IC50 [1, 5]: 3.37 ± 1.63 µM | IC50 [2, 6]: 2.17 ± 0.03 µM

Compound: CN1CCC(Oc2ccc(Nc3ccc(NC(=O)c4ccc5ccccc5c4)cc3)cc2)CC1
IC50 [1, 5]: 2.15 ± 0.01 µM | IC50 [2, 6]: 4.6 ± 0.25 µM

Compound: CN1CCC(Oc2ccc(-c3cccc(NC(=O)c4ccccc4)c3)cc2)CC1 [Compound 6b, N-(4′-((1-methylpiperidin-4-yl)oxy)-[1,1′-biphenyl]-3-yl)benzamide]
IC50 [1, 7]: 12 ± 0.57 µM | IC50 [2, 8]: 18.9 ± 0.95 µM

Compound: Cc1ccc(C(=O)Nc2cccc(-c3ccc(OC4CCN(C)CC4)cc3)c2)cc1 [Compound 6c, 4-methyl-N-(4′-((1-methylpiperidin-4-yl)oxy)-[1,1′-biphenyl]-3-yl)benzamide]
IC50 [1, 7]: 3.92 ± 0.13 µM | IC50 [2, 8]: 5.27 µM

Compound: Cc1cccc(C(=O)Nc2cccc(-c3ccc(OC4CCN(C)CC4)cc3)c2)c1 [Compound 6d, 3-methyl-N-(4′-((1-methylpiperidin-4-yl)oxy)-[1,1′-biphenyl]-3-yl)benzamide]
IC50 [1, 7]: 7.73 ± 1.9 µM | IC50 [2, 8]: 11.4 ± 1.37 µM

Compound: CN1CCC(Oc2ccc(-c3cccc(NC(=O)c4ccc(C(C)(C)C)cc4)c3)cc2)CC1 [Compound 6e, 4-(tert-butyl)-N-(4′-((1-methylpiperidin-4-yl)oxy)-[1,1′-biphenyl]-3-yl)benzamide]
IC50 [1, 9]: 3.45 ± 0.02 µM | IC50 [1, 7]: 3.45 ± 0.02 µM | IC50 [2, 10]: 1.51 ± 0.31 µM | IC50 [2, 8]: 1.51 ± 0.31 µM

Compound: COc1ccc(C(=O)Nc2cccc(-c3ccc(OC4CCN(C)CC4)cc3)c2)cc1 [Compound 6f, 4-methoxy-N-(4′-((1-methylpiperidin-4-yl)oxy)-[1,1′-biphenyl]-3-yl)benzamide]
IC50 [1, 9]: 5.52 ± 0.01 µM | IC50 [1, 7]: 5.52 ± 0.01 µM | IC50 [2, 10]: 10.1 ± 0.93 µM | IC50 [2, 8]: 10.1 ± 0.93 µM

Compound: COc1cccc(C(=O)Nc2cccc(-c3ccc(OC4CCN(C)CC4)cc3)c2)c1 [Compound 6g, 3-methoxy-N-(4′-((1-methylpiperidin-4-yl)oxy)-[1,1′-biphenyl]-3-yl)benzamide]
IC50 [1, 7]: 4.5 ± 0.46 µM | IC50 [2, 8]: 8.36 ± 1.35 µM

Compound: CN1CCC(Oc2ccc(-c3cccc(NC(=O)c4ccc(Cl)cc4)c3)cc2)CC1 [Compound 6h, 4-Chloro-N-(4′-((1-methylpiperidin-4-yl)oxy)-[1,1′-biphenyl]-3-yl)benzamide]
IC50 [1, 9]: 2.23 ± 0.05 µM | IC50 [1, 7]: 2.23 ± 0.05 µM | IC50 [2, 10]: 3.63 ± 1.03 µM | IC50 [2, 8]: 3.63 ± 1.03 µM

Compound: CN1CCC(Oc2ccc(-c3cccc(NC(=O)c4cccc(Cl)c4)c3)cc2)CC1 [Compound 6i, 3-Chloro-N-(4′-((1-methylpiperidin-4-yl)oxy)-[1,1′-biphenyl]-3-yl)benzamide]
IC50 [1, 7]: 2.11 ± 0.42 µM | IC50 [2, 8]: 4.29 ± 0.43 µM

Compound: CN1CCC(Oc2ccc(-c3cccc(NC(=O)c4ccccc4Cl)c3)cc2)CC1 [Compound 6k, 2-Chloro-N-(4′-((1-methylpiperidin-4-yl)oxy)-[1,1′-biphenyl]-3-yl)benzamide]
IC50 [1, 7]: 5.17 ± 0.49 µM | IC50 [2, 8]: 7.87 ± 0.48 µM

Compound: CN1CCC(Oc2ccc(-c3cccc(NC(=O)c4ccc(Cl)cc4Cl)c3)cc2)CC1 [Compound 6n, 2,4-Dichloro-N-(4′-((1-methylpiperidin-4-yl)oxy)-[1,1′-biphenyl]-3-yl)benzamide]
IC50 [1, 7]: 3.93 ± 0.47 µM | IC50 [2, 8]: 5.91 ± 0.15 µM

Compound: CN1CCC(Oc2ccc(-c3cccc(NC(=O)c4cc(Cl)cc(Cl)c4)c3)cc2)CC1 [Compound 6o, 3,5-Dichloro-N-(4′-((1-methylpiperidin-4-yl)oxy)-[1,1′-biphenyl]-3-yl)benzamide]
IC50 [1, 7]: 3.72 ± 0.15 µM | IC50 [2, 8]: 4.23 ± 0.09 µM

Compound: CN1CCC(Oc2ccc(-c3cccc(NC(=O)c4cccc5ccccc45)c3)cc2)CC1 [Compound 6p, N-(4′-((1-methylpiperidin-4-yl)oxy)-[1,1′-biphenyl]-3-yl)-1-naphthamide]
IC50 [1, 7]: 1.1 ± 0.17 µM | IC50 [2, 8]: 1.64 ± 0.13 µM

Compound: CN1CCC(Oc2ccc(-c3cccc(NC(=O)c4ccc5ccccc5c4)c3)cc2)CC1 [Compound 6q]
IC50 [1, 7]: 1.66 ± 0.27 µM | IC50 [2, 8]: 2.09 ± 0.34 µM

Compound: COc1cccc(-c2cc(C(=O)Nc3ccc(-c4ccc(OC5CCN(C)CC5)nc4)cc3)ccc2OC)c1 [Compound 19a, 3′,6-dimethoxy-N-(4-(6-((1-methylpiperidin-4-yl)oxy)pyridin-3-yl)phenyl)-[1,1′-biphenyl]-3-carboxamide]
IC50 [1, 11]: 1.56 ± 0.19 µM | IC50 [2, 12]: 1.67 ± 0.09 µM

Compound: COc1cccc(-c2cc(C(=O)Nc3ccc(-c4ccc(OC5CCN(C)CC5)cn4)cc3)ccc2OC)c1 [Compound 19b, 3′,6-dimethoxy-N-(4-(5-((1-methylpiperidin-4-yl)oxy)pyridin-2-yl)phenyl)-[1,1′-biphenyl]-3-carboxamide]
IC50 [1, 11]: 1.3 ± 0.15 µM | IC50 [2, 12]: 1.91 ± 0.21 µM

Compound: COc1cccc(-c2cc(C(=O)Nc3ccc(-c4ccc(OC5CCN(C)CC5)cc4)nc3)ccc2OC)c1 [Compound 19c, 3′,6-dimethoxy-N-(6-(4-((1-methylpiperidin-4-yl)oxy)phenyl)pyridin-3-yl)-[1,1′-biphenyl]-3-carboxamide]
IC50 [1, 11]: 1.02 ± 0.01 µM | IC50 [2, 12]: 1.21 ± 0.13 µM

Compound: COc1cccc(-c2cc(C(=O)Nc3ccc(-c4ccc(OC5CCN(C)CC5)cc4)cn3)ccc2OC)c1 [Compound 19d, 3′,6-dimethoxy-N-(5-(4-((1-methylpiperidin-4-yl)oxy)phenyl)pyridin-2-yl)-[1,1′-biphenyl]-3-carboxamide]
IC50 [1, 11]: 1.02 ± 0.01 µM | IC50 [2, 12]: 1.07 ± 0.01 µM

Further lines, results first:

IC50 [1, 13]: 1.69 ± 0.08 µM | IC50 [2, 14]: 0.83 ± 0.03 µM
Compound: COc1cccc(-c2cc(C(=O)Nc3ccc(-c4ccc(OC5CCN(C)CC5)c(C)c4)cc3)ccc2OC)c1 [Compound 29a, 3′,6-dimethoxy-N-(3′-methyl-4′-((1-methylpiperidin-4-yl)oxy)-[1,1′-biphenyl]-4-yl)-[1,1′-biphenyl]-3-carboxamide]

IC50 [1, 13]: 1.21 ± 0.03 µM | IC50 [2, 14]: 1.18 ± 0.11 µM
Compound: COc1cccc(-c2cc(C(=O)Nc3ccc(-c4ccc(OC5CCN(C)CC5)cc4C)cc3)ccc2OC)c1 [Compound 29b, 3′,6-dimethoxy-N-(2′-methyl-4′-((1-methylpiperidin-4-yl)oxy)-[1,1′-biphenyl]-4-yl)-[1,1′-biphenyl]-3-carboxamide]

IC50 [1, 13]: 1.57 ± 0.56 µM | IC50 [2, 14]: 0.97 ± 0.01 µM
Compound: COc1cccc(-c2cc(C(=O)Nc3ccc(-c4ccc(OC5CCN(C)CC5)cc4)c(C)c3)ccc2OC)c1 [Compound 29c, 3′,6-dimethoxy-N-(2-methyl-4′-((1-methylpiperidin-4-yl)oxy)-[1,1′-biphenyl]-4-yl)-[1,1′-biphenyl]-3-carboxamide]

IC50 [1, 13]: 1.43 ± 0.35 µM | IC50 [2, 14]: 2.47 ± 0.39 µM
Compound: COc1cccc(-c2cc(C(=O)Nc3ccc(-c4ccc(OC5CCN(C)CC5)cc4)cc3C)ccc2OC)c1 [Compound 29d, 3′,6-dimethoxy-N-(3-methyl-4′-((1-methylpiperidin-4-yl)oxy)-[1,1′-biphenyl]-4-yl)-[1,1′-biphenyl]-3-carboxamide]

IC50 [1, 13]: 1.32 ± 0.08 µM | IC50 [2, 14]: 0.68 ± 0.13 µM
Compound: COc1cccc(-c2cc(C(=O)Nc3ccc(-c4ccc(OC5CCN(C)CC5)c(OC)c4)cc3)ccc2OC)c1 [Compound 29e, 3′,6-dimethoxy-N-(3′-methoxy-4′-((1-methylpiperidin-4-yl)oxy)-[1,1′-biphenyl]-4-yl)-[1,1′-biphenyl]-3-carboxamide]

IC50 [1, 13]: 1.35 ± 0.16 µM | IC50 [2, 14]: 1.41 ± 0.35 µM
Compound: COc1cccc(-c2cc(C(=O)Nc3ccc(-c4ccc(OC5CCN(C)CC5)cc4OC)cc3)ccc2OC)c1 [Compound 29f, 3′,6-dimethoxy-N-(2′-methoxy-4′-((1-methylpiperidin-4-yl)-oxy)-[1,1′-biphenyl]-4-yl)-[1,1′-biphenyl]-3-carboxamide]

IC50 [1, 13]: 1.5 ± 0.08 µM | IC50 [2, 14]: 0.9 ± 0.08 µM
Compound: COc1cccc(-c2cc(C(=O)Nc3ccc(-c4ccc(OC5CCN(C)CC5)cc4)c(OC)c3)ccc2OC)c1 [Compound 29g, 3′,6-dimethoxy-N-(2-methoxy-4′-((1-methylpiperidin-4-yl)oxy)-[1,1′-biphenyl]-4-yl)-[1,1′-biphenyl]-3-carboxamide]

IC50 [1, 13]: 1.22 ± 0.04 µM | IC50 [2, 14]: 3.92 ± 0.21 µM
Compound: COc1cccc(-c2cc(C(=O)Nc3ccc(-c4ccc(OC5CCN(C)CC5)cc4)cc3OC)ccc2OC)c1 [Compound 29h, 3′,6-dimethoxy-N-(3-methoxy-4′-((1-methylpiperidin-4-yl)oxy)-[1,1′-biphenyl]-4-yl)-[1,1′-biphenyl]-3-carboxamide]

IC50 ([2]; SK-BR-3, Table 7, para-para biphenyl core with modified ether groups): 1.75 ± 0.24 µM
Compound: COc1cccc(-c2cc(C(=O)Nc3ccc(-c4ccc(OCCC5CCCN5C)cc4)cc3)ccc2OC)c1 (stereo not shown) [Compound 56d, 3′,6-dimethoxy-N-(4′-(2-(1-methylpyrrolidin-2-yl)ethoxy)-[1,1′-biphenyl]-4-yl)-[1,1′-biphenyl]-3-carboxamide]
